Results on 91 compounds are retold here after a melting point compilation (Tetko et al.; mined from patent text by program, amines drawn as free bases though some values may be those of a salt).

Where only a bound is given, the exact number is not on record here.

Turning to `O=C(O)c1ccc(Cl)cc1Nc1cccc(Br)c1`, the melting point is 205 to 207 °C.

With `CC(=O)N[C@@H](C)COc1ccc2nc(-c3ccc(OCC4CC4)c(F)c3F)oc2c1F`, the melting point is 168 °C.

Compound `O=C(c1ccc(S)cc1)c1ccc([N+](=O)[O-])cc1` came in with a melting point of 116 to 117 °C.

With `CNc1nc(Cl)nc2c(Cl)ncnc12`, the melting point lay in the range of 196 to 197 °C.

In turn, `CS(=O)(=O)Nc1ccc(N2CCN(c3ccncc3)CC2)cc1` came in with a melting point of 230 to 232 °C.

In the case of `Cc1nnc(CNC(=O)CNC(=O)CN2C(=O)c3ccccc3C2=O)n1-c1ccc(Cl)cc1C(=O)c1ccccc1Cl`, the melting point fell in the range of 269 to 270 °C.

With `Nc1nc2c(s1)CCN(CC=Cc1ccccc1[N+](=O)[O-])CC2`, the melting point lay within 125 to 128 °C.

`CCCCN(CCCC)CCCOc1ccc(S(=O)(=O)c2cn[nH]c2C(C)C)cc1`: the melting point came to 53 °C.

Consider `O=C(CN1C(=O)C(c2ccccc2)c2ccccc21)N1CCOCC1` (stereo unspecified), for which the melting point fell in the range of 153 to 154 °C.

In turn, `Cn1ccnc1S(=O)(=O)C(C#N)=Cc1c(Cl)n(CC2CC2)c2ccccc12` returned a melting point of 214 °C.

Turning to `CC(C)(CCCC(=O)O)c1ccc(O)c(C(=O)O)c1`, the melting point was in the range of 136 to 138 °C.

The compound `CC1=C(C)C(Cl)N(c2ccc(Cl)c(Cl)c2)C1=O` (stereo unspecified) displayed a melting point of 95 to 96 °C.

The compound `CC(=O)NC(C)(C)c1ccc(C(C)N2CCN(c3ccccc3)CC2)cc1` (stereo unspecified) showed a melting point of 169 to 171 °C.

As for `O=c1[nH]c2cc(Cl)ccc2c(=O)n1Cc1ccc(Br)cc1F`, the melting point fell in the range of 288 to 289 °C.

In turn, `CN(C)C(=N[N+](=O)[O-])N(C#N)Cc1cnc(Cl)s1` yielded a melting point of 152 to 155 °C.

`O=C(O)Cc1cc(C(=O)Cc2ccccc2)ccc1O` returned a melting point of 198 °C.

As for `CCOC(=O)c1cccc(-c2nc(-c3cc(C)sc3C)cs2)c1`, the melting point was in the range of 115 to 116 °C.

Compound `CC(C)(C)OOC(C)(C)c1ccc(C(C)(C)OOC(C)(C)C)cc1` showed a melting point of 76 to 77 °C.

On to `COc1cc(N(C)C)nc(N2CCN(Cc3ccc(CNC(C)=O)cc3)CC2)n1`, for which the melting point lay in the range of 115 to 118 °C.

Consider `ClCc1ccc2c(c1)Cc1cccnc1O2`, for which the melting point was in the range of 172 to 174 °C.

As to `CNS(=O)(=O)c1cc(C)oc1CC(=O)O`, the melting point lay within 112 to 113 °C.

As to `CN1CCCN(Cc2nc3ccccc3[nH]2)CC1`, the melting point was in the range of 152 to 155 °C.

`N#Cc1cc(N)ccc1N` gave a melting point of 85 to 87 °C.

In the case of `COC(=O)c1cccc(Oc2cccc(-c3nn(Cc4ccc(C(F)(F)P(=O)(O)O)c(Cl)c4)c(=Nc4ccc(Cl)c(Cl)c4)s3)c2)c1`, the melting point was in the range of 137 to 139 °C.

Consider `OC(C=CCN1CCC(O)(c2ccc(Cl)cc2)CC1)c1ccc(F)cc1` (stereo unspecified), for which the melting point lay in the range of 126 to 127 °C.

As to `COc1ccc(N2CCN(c3c(C)c(C)c4c(c3C)CC(C)(CO)O4)CC2)cc1` (stereo unspecified), the melting point is 137 to 139 °C.

In the case of `Cn1cc(-c2ncc(-c3ccc4cc(OC(Cc5ccccc5)C(=O)O)ccc4c3)o2)c2ccccc21` (stereo unspecified), the melting point fell in the range of 149 to 151 °C.

`CC(C)(C)C(=O)Nc1ccc(Cl)cc1` showed a melting point of 149 to 150 °C.

As to `CC1Cc2cc(Br)cc(S(N)(=O)=O)c2O1` (stereo unspecified), the melting point lay in the range of 167 to 169 °C.

`CNC(=O)CCCc1cncc2ccc(OC)cc12` returned a melting point of 117 to 119 °C.

In turn, `ON=C(Cl)c1ccc(Cl)c(Cl)c1` had a melting point of 104 to 106 °C.

With `OCC1OC(n2c(I)nc3cc(Cl)c(Cl)cc32)C(O)C1O` (stereo unspecified), the melting point lay within 180 to 182 °C.

In turn, `CC(C)c1ccc(F)c(C(C)C)c1NC(=O)CN1CCN(CCSc2nc3ccccc3o2)CC1` came in with a melting point of 142 to 144 °C.

Regarding `COP(=O)(CC(=O)[C@@H]1COC(C)(C)N1C(=O)OC(C)(C)C)OC`, the melting point fell in the range of 86 to 87 °C.

On to `Cc1nc(N2CCN(Cc3ccc(F)cc3)C2=O)sc1C(=O)NCc1ccncc1`, for which the melting point fell in the range of 146 to 149 °C.

`CCC(=O)NC[C@H]1CN(c2ccc3c(c2)CCCc2cnoc2-3)C(=O)O1` registered a melting point of 185 to 186 °C.

`NCC1COc2cc(F)cc(-c3ccccc3C(F)(F)F)c2N1` (stereo unspecified): the melting point is 99 °C.

On to `CN(C)C(=O)c1ccc(-c2ccc3nnn(Cc4ccc5ncccc5c4)c3n2)cc1F`, for which the melting point was in the range of 163 to 165 °C.

Consider `OCc1cc(-c2ccc(Cl)c(Cl)c2)n(Cc2cccc(Cl)c2)n1`, for which the melting point was found to be 95 °C.

`CC1CNc2c([N+](=O)[O-])cnn2C1` (stereo unspecified) registered a melting point of 190 to 192 °C.

`O=S1N=C(NCCCOc2cccc(CN3CCCCC3)c2)C(NCc2ccccn2)=N1` (stereo unspecified) gave a melting point of 140 to 143 °C.

`CC(=O)Oc1ccc2ncc3c(c2c1)CCCC3` displayed a melting point of 118 to 119 °C.

As for `NCCCc1c[nH]c2ccc3c(=O)[nH]ccc3c12`, the melting point was 225 to 230 °C.

With `COC(=O)C1=C(O)c2sc(C(F)(F)F)cc2S(=O)(=O)N1`, the melting point was in the range of 168 to 170 °C.

With `CC(=O)OCc1c(-c2ccccc2)oc2c(CO)cccc2c1=O`, the melting point was 204 to 206 °C.

`COc1ccc(-c2nc(CNC(=O)CC(=O)O)sc2-c2ccc(OC)cc2)cc1`: the melting point lay within 126 to 130 °C.

Compound `O=C(O)Cc1cc(Br)c(S(=O)(=O)c2ccc(O)c(C3CCCC3)c2)c(Br)c1` came in with a melting point of 171 to 174 °C.

On to `COC(=O)C1Cc2c([nH]c3ccccc23)C(c2c(Cl)cccc2Cl)N1` (stereo unspecified), for which the melting point fell in the range of 102 to 105 °C.

For `CCC(CC)C(=O)Nc1cc(-c2ccccc2)nc(-c2ccccc2)n1`, the melting point was 102 °C.

The compound `COc1ccc(O)cc1[N+](=O)[O-]` returned a melting point of 78 to 80 °C.

Regarding `Cc1nnc(-c2ccc3occ(-c4cccc(F)c4F)c3c2)o1`, the melting point was in the range of 112 to 113 °C.

Turning to `NC(=O)C1(c2ccn(C(CC(=O)OCc3ccccc3)C(=O)NC(CO)Cc3ccccc3)c2)C=CC(c2ccccc2)=CC1` (stereo unspecified), the melting point was 192 to 194 °C.

`CC(C)CNc1c([N+](=O)[O-])cnc2cc(Br)cnc12`: the melting point fell in the range of 114 to 115 °C.

For the compound `O=c1c(Cc2ccccc2)c2n(c(=O)n1CCCCCl)CCCS2(=O)=O`, the melting point is 103 to 105 °C.

`CCCCC1=C(C(=O)O)Nc2ccc(C(=O)O)cc2C1O` (stereo unspecified): the melting point was > 260 °C.

For `CCC(CC)C(NS(=O)(=O)c1cc(Cl)c(Cl)s1)c1ccnn1-c1ccccc1` (stereo unspecified), the melting point lay in the range of 116 to 120 °C.

Compound `CC(C)(C)OC(=O)[C@H]1C[C@@H](S(=O)(=O)c2ccccc2)[C@@H](c2ccccc2)N1C(=O)CNC(=O)Nc1cccc(C(=O)OCc2ccccc2)c1` (racemic) showed a melting point of 212 °C.

For `OC(Cn1cncn1)(c1ccccc1)c1ccccc1`, the melting point is 128 to 129 °C.

Compound `CON=C(C(=O)NN)c1ccccc1COc1cc(C)ccc1C` displayed a melting point of 124 to 126 °C.

With `CCCCCS(=O)(=O)NC(=O)OCc1ccc(OCCCC)cc1Oc1ncc(C(F)(F)F)cc1Cl`, the melting point was in the range of 124 to 126 °C.

With `NC(=O)c1cc(OCCNCC(O)COc2ccc(CCOCC3CC3)cc2)ccc1O` (stereo unspecified), the melting point is 149 to 150 °C.

In turn, `COc1ccc(CCc2nccn3c(Br)cc(Br)c23)cc1` showed a melting point of 75 to 76 °C.

`CC1(C)C(=NO)C(c2ccccc2)=C1c1ccc(S(C)(=O)=O)cc1` showed a melting point of 217 to 220 °C.

Regarding `NC(=NO)c1ccccc1N`, the melting point fell in the range of 85 to 86 °C.

On to `S=C(SSC(=S)c1ccccc1)c1ccccc1`, for which the melting point lay in the range of 89 to 91 °C.

`COCCOc1c(S(C)(=O)=O)ccc(C(=O)O)c1Cl` had a melting point of 89 to 92 °C.

For the compound `CC1NC(=NO)OC1c1ccccc1` (stereo unspecified), the melting point is 145 to 148 °C.

Turning to `CC(c1ccc(-c2ccccc2)c(F)c1)c1csc(NCCc2ccccc2)n1` (stereo unspecified), the melting point fell in the range of 74.5 to 75.5 °C.

Take `CC(C)(C)OC(=O)Nc1ccc(-c2cccnc2)cc1[N+](=O)[O-]`: the melting point lay within 107 to 109 °C.

As to `Clc1ccc2c(c1)C(c1ccccc1)=Nc1cccnc1N2`, the melting point was 156 to 158 °C.

In turn, `Cc1ccc(-c2nc(=O)c3ccccc3s2)n1C` came in with a melting point of 194 to 196 °C.

`CC(=O)N(c1ccccn1)c1ncc(Br)s1` gave a melting point of 132 to 138 °C.

The compound `O=C(C=C1CCCN1)c1cccs1` yielded a melting point of 149 to 150 °C.

Take `COc1ccc2c(c1)CCN2c1cccc(C#N)c1`: the melting point was 92.5 to 93.5 °C.

For the compound `CCN1CCN(c2cccc3ccc(-c4cccc(NS(C)(=O)=O)c4)cc23)CC1`, the melting point fell in the range of 100 to 101 °C.

The compound `CC12C=CC(C)(CC(=O)C1)O2` registered a melting point of 62 to 63 °C.

Take `CCOC(=O)c1cc(NC(=O)NCC(=O)N2[C@@H](C(=O)OC(C)(C)C)CC[C@H]2c2ccccc2)ccc1O` (racemic): the melting point came out at 150 °C.

Compound `CCc1cc([N+](=O)[O-])c(NC(CC)COC)c([N+](=O)[O-])c1COC` (stereo unspecified) showed a melting point of 54 to 55 °C.

For `O=C(CCl)N1CCSC1COc1ccccc1O` (stereo unspecified), the melting point fell in the range of 89 to 91 °C.

As for `COc1ccc(C(=O)Nc2ccc(F)cc2)cc1NS(=O)(=O)c1ccc([N+](=O)[O-])cc1`, the melting point lay in the range of 208 to 211 °C.

With `O=c1c(N2CCNCC2)nc2ccccc2n1-c1cccc(F)c1`, the melting point lay within 149 to 150 °C.

`CCOc1nc2c(C)sc(C(=O)OC)c2n1Cc1ccc(-c2ccccc2C#N)cc1` returned a melting point of 155 to 156 °C.

In turn, `CCOC(=O)c1cc2c(C=O)cc3c4ccccc4ccc3c2o1` showed a melting point of 209 to 212 °C.

Compound `O=C(c1cc2cc(OCc3ccccc3)ccc2[nH]1)C12CC3CC(CC(C3)C1)C2` registered a melting point of 189 to 191 °C.

Compound `COC(=O)c1[nH]c2c(C)ccc(C)c2c1C(N)=O` registered a melting point of 201 to 202 °C.

Consider `CC(C)CS(=O)c1ccc(N)c([N+](=O)[O-])c1` (stereo unspecified), for which the melting point was in the range of 111 to 118 °C.

In turn, `FC(F)(F)c1cc(Nc2nc3ccccc3o2)ccc1Br` showed a melting point of 211 to 212 °C.

On to `Cc1ccc(OC2=C(Oc3ccc(C)cc3)C(F)(F)C(F)(F)C2(F)F)cc1`, for which the melting point was in the range of 46 to 48 °C.

The compound `O=C(NC(=O)c1c(Cl)cccc1Cl)Nc1ccc(OC(F)(F)F)cc1` came in with a melting point of 202 °C.

In turn, `NC(=O)c1ccc(OCC(F)(F)F)cc1` came in with a melting point of 177 to 178 °C.

`O=C1c2ccccc2C(=O)N1OCc1cccs1` yielded a melting point of 130 to 131 °C.

By melting point is commonly meant the temperature, or range, at which the solid turns liquid.
